Paper PMC11087268, “A folate inhibitor exploits metabolic differences in Pseudomonas aeruginosa for narrow-spectrum targeting” (Nature Microbiology, 2024)
Values after ≈ are worked out from the molar mass of the structure shown. Values joined by “and” are separate entries in the source; they are usually repeats but may differ in a detail not shown here. Equal entries are not always repeated.

Assays:
[1] = tested on: Enterococcus faecalis ATCC 51575; assay: MIC (WuXi, Mueller–Hinton broth) against E. faecalis; type: cell-based; conditions: ATCC51575
Method: Bacterial colonies (4–8) of strains of interest were vortexed in saline and adjusted to an OD600 of 0.2. Strains were diluted 1:200 into CAMHB media in 96-well plates. Antibiotics were serially diluted 1:3 in DMSO, and 1 μl of each dilution was added to bacteria. The plates were incubated for 18–20 h at 37 °C before observation.

[2] = tested on: Escherichia coli NCM-3722; assay: MIC against E. coli NCM-3722 in LB broth; type: cell-based; conditions: NCM3722, 16 h, 37 °C, OD600
Method: Overnight cultures were diluted 1:150 in LB broth and added to a 96-well plate. Antibiotics were serially diluted 1:2 and added to columns of the 96-well plate and grown at 37 °C with continuous shaking. Cell growth was measured using optical density at 600 nm (OD600). MIC assays were performed in either BioTek Synergy HT or Tecan InfiniteM200 Pro microplate readers.

P. aeruginosa PA14 = assay: Colony-forming units counting after antibiotic treatment; type: cell-based, Pseudomonas aeruginosa; conditions: for PA14 CFU/mL, Mean: 2× MIC (fluorofolin 6.2, TMP 250, polymixin B 4 μg ml^−1)
Method: P. aeruginosa PA14 overnight cultures were diluted 1:100 and grown to exponential phase (OD600 = 0.4–0.6). Cultures were diluted 1:10 and treated with antibiotic. At each time point, 150 μl of culture was removed, serial diluted 1:10 six times and plated onto LB agar plates. Plates were grown overnight at 37 °C, after which visible colonies were counted. C.f.u.s ml^−1 are reported from dilutions in which ~10–100 single colonies were visible.

E. coli DHFR (FolA) = target: T1, E. coli DHFR (FolA) (Escherichia coli, UniProt P0ABQ4); assay: In vitro DHFR activity, purified E. coli FolA; type: biochemical; conditions: for fractional initial velocity: E. coli FolA
T1 construct: purchased Genscript
T1 sequence (P0ABQ4 whole entry): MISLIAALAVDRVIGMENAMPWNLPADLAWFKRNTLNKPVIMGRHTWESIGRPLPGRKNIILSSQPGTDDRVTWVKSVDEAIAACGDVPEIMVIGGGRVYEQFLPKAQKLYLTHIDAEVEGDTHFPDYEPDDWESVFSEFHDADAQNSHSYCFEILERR
Method: As described previously, purified E. coli dihydrofolate reductase (FolA) was purified by Genscript. Enzyme activity was measured on a QuantaMaster 40 spectrophotometer (Photon Technology) using the DHFR reductase assay kit with slight modifications. E. coli FolA was diluted 1:1,000 into 1× assay buffer. Of this mixture, 100 μl with or without compound was added to a BRAND UV cuvette (Sigma-Aldrich BR759200) and sample transmitted light intensity at 340 nm was measured for 100 s at 1 kHz sampling. Readings were averaged for every 1 Hz and the activity of each sample was calculated from the slope (β) of a linear regression of the log-transformed intensity measurements on MATLAB R2022B. To account for enzyme stability, measurements were normalized to a standard condition (60 μM NADPH and 100 μM DHF) measured immediately before the sample of interest. The relative activity was calculated as (βsample − βnoEnzyme)/(βstandard − βnoEnzyme).

human DHFR = target: T2, human DHFR (Homo sapiens, UniProt P00374); assay: Human DHFR in vitro assay; type: biochemical; conditions: for Normalized activity to no drug control: human DHFR
T2 construct: purchased R&D Systems 8456-DR
T2 sequence (P00374 1-187): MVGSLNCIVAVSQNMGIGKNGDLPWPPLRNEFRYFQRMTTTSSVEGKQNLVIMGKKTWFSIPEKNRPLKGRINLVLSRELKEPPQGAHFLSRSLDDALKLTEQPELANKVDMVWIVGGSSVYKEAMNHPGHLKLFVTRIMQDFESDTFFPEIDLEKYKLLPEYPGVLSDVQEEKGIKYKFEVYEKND

[3] = tested on: PBMC (peripheral blood mononuclear cell); assay: Mammalian cell cytotoxicity, PBMC; type: cell-based, human
Method: HK-2 (500 cells per well) (ATCC CRL-2190), HLF (500 cells per well) (Cell Applications 506K-05a), WI-38 (500 cells per well) (ATCC CCL-75) or PBMC (5,000 cells per well) (TPCS PB010C) cells were seeded in white opaque 384-well plates. After 24 h, DMSO or compounds were added in 3-fold dilutions and cells incubated for 72 h. For PBMC, CellTiter-Glo reagent was added in equal volume and incubated for 30 min, after which luminescence was read. For other cell types, CyQUANT detection reagent was added in equal volume and cells incubated for 1 h, after which fluorescence was read with standard green filter set […]. Cell toxicity was evaluated by Pharmaron.

[4] = Serum (plasma protein) binding; type: in vitro ADME
Method: An initial t = 0 sample was collected. […] Serum binding parameters were determined as follows: • % Bound = 100% − % Unbound • logK = log(% Bound/100 − % Bound) • % Remaining = Area-ratio6h/Area-ratio0h × 100% • % Recovery was determined as (Area-ratiobuffer-chamber + Area-ratioplasma-chamber)/(Area-ratiototal sample) × 100

E. coli lptD4213 = assay: Growth of E. coli lptd4213 with fluorofolin (with or without SMX) and thymidine or TMI; type: cell-based, Escherichia coli; conditions: fluorofolin 50 μg/mL, 0.3 mM thymidine
Method: Where listed, growth media were prepared according manufacturer recommendations: LB broth and LB broth supplemented with 0.3 mM thymine (BD Biosciences 244610, Alfa Aesar A15879), 0.3 mM methionine (Sigma-Aldrich M9625), 0.3 mM inosine (EMD Millipore 4060), cation-adjusted Mueller–Hinton II broth (CAMHB) (BD 212322) or 0.3 mM thymidine (Sigma-Aldrich T1895), Gutnick minimal media (1.0 g l^−1 K2SO4, 13.5 g l^−1 K2HPO4, 4.7 g l^−1 KH2PO4, 0.1 g l^−1 MgSO4·7H2O, 10 mM NH4Cl as a nitrogen source and 0.4% w/v glucose as a carbon source)[65].
Extended Data Fig. 3 TMI supplementation can also rescue other species from fluorofolin DHFR inhibition. […] (f) P. aeruginosa PA14 or E. coli lptd4213 treated with fluorofolin 50 μg/mL in the presence or absence of 0.3 mM thymidine. (g) E. coli lptd4213 treated with fluorofolin 50 μg/mL and SMX (78.1 μg/mL) in the presence or absence of 0.3 mM thymidine or 0.3 mM TMI supplementation, Curves represent average optical at 600 nm (OD600) of 2 biological replicates. Means are shown. Source data

[5] = mouse plasma, 1 μM, 6 h, dialysis

With `Nc1nc(N)c2c(ccc3c2ccn3Cc2ccnc(F)c2)n1` [fluorofolin] the MIC [1] was 0.01 µg/mL (≈ 0.0324 µM), the MIC [2] was 0.312 µg/mL and the “type of antibacterial activity” value (P. aeruginosa PA14; PA14, rich media) was “bacteriostatic”. For the same compound, the “PA14 CFU/mL, Mean” value (P. aeruginosa PA14; Time 0 h) was 197000 CFU/mL, the “PA14 CFU/mL, Mean” value (P. aeruginosa PA14; Time 1 h) was 211000 CFU/mL and the “PA14 CFU/mL, Mean” value (P. aeruginosa PA14; Time 2 h) was 171000 CFU/mL. The “PA14 CFU/mL, Mean” value (P. aeruginosa PA14; Time 4 h) was 206667 CFU/mL, the IC50 (E. coli DHFR (FolA)) was 2.5 ± 1.1 nM and the fractional initial velocity (E. coli DHFR (FolA); Fluorofolin 9.91e-5 uM) was 1.007. For the same compound, the fractional initial velocity (E. coli DHFR (FolA); Fluorofolin 0.000507393 uM) was 1.009, the fractional initial velocity (E. coli DHFR (FolA); Fluorofolin 0.000792664 uM) was 0.7937 and the fractional initial velocity (E. coli DHFR (FolA); Fluorofolin 0.00101479 uM) was 0.7819. For the same compound, the fractional initial velocity (E. coli DHFR (FolA); Fluorofolin 0.00152192 uM) was 0.9341, the fractional initial velocity (E. coli DHFR (FolA); Fluorofolin 0.00158533 uM) was 0.5604 and the fractional initial velocity (E. coli DHFR (FolA); Fluorofolin 0.00202957 uM) was 0.702. It also gave a fractional initial velocity (E. coli DHFR (FolA); Fluorofolin 0.00405914 uM) of 0.5491, a fractional initial velocity (E. coli DHFR (FolA); Fluorofolin 0.00608766 uM) of 0.1317 and a fractional initial velocity (E. coli DHFR (FolA); Fluorofolin 0.00634131 uM) of 0.5169. For the same compound, the fractional initial velocity (E. coli DHFR (FolA); Fluorofolin 0.00811828 uM) was 0.197, the fractional initial velocity (E. coli DHFR (FolA); Fluorofolin 0.0121753 uM) was 0.07555 and the fractional initial velocity (E. coli DHFR (FolA); Fluorofolin 0.0126826 uM) was 0.0002002. For the same compound, the fractional initial velocity (E. coli DHFR (FolA); Fluorofolin 0.0162366 uM) was 0.3634, the fractional initial velocity (E. coli DHFR (FolA); Fluorofolin 0.0253653 uM) was 0.0004461 and the fractional initial velocity (E. coli DHFR (FolA); Fluorofolin 0.0324731 uM) was -0.0327. The “Normalized activity to no drug control” value (human DHFR; Fluorofolin 0.12207 nM) was 1.039, the “Normalized activity to no drug control” value (human DHFR; Fluorofolin 0.488281 nM) was 1.039 and the “Normalized activity to no drug control” value (human DHFR; Fluorofolin 1.95312 nM, replicates _1, _2) was 0.9215 and 1.02. For the same compound, the “Normalized activity to no drug control” value (human DHFR; Fluorofolin 7.8125 nM, replicates _1, _2) was 0.5724 and 0.64, the “Normalized activity to no drug control” value (human DHFR; Fluorofolin 31.25 nM, replicates _1, _2) was 0.387 and 0.4828 and the “Normalized activity to no drug control” value (human DHFR; Fluorofolin 125 nM, replicates _1, _2) was 0.2567 and 0.2221. For the same compound, the “Normalized activity to no drug control” value (human DHFR; Fluorofolin 500 nM, replicates _1, _2) was 0.1373 and 0.1034, the “Normalized activity to no drug control” value (human DHFR; Fluorofolin 2000 nM, replicates _1, _2) was 0.03994 and 0.01531 and the IC50 (human DHFR; purified human DHFR) was 14 ± 4 nM. For the same compound, the IC50 ([3]; Homo sapiens, PBMC, 72 h, CellTiter-Glo, read-out: IC50 Fluorofolin) was 39.8 µg/mL (≈ 129 µM), the “increase in IC50 compared with IRS-16” value ([3]; PBMCs) was 9.6 fold and the “% Bound” value [4, 5] was 71.7000%. For the same compound, the “% Recovery” value [4, 5] was 91.8800%, the “% Unbound” value [4, 5] was 28.3000% and the fraction unbound at 6 h, 1 μM ([4]; mouse plasma, 1 μM, 6 h, dialysis, read-out: % Bound (converted)) was 0.283. It also gave a LogK ([4]; mouse plasma, log(% Bound/(100 − % Bound))) of 0.4000, a recovery at 6 h, 1 μM ([4]; mouse, 1 μM, 6 h, dialysis) of 91.9% and a remaining at 6 h, 1 μM ([4]; mouse, read-out: % Remaining after 6 hours) of 89.7%. The “rescue of growth inhibition by thymidine supplementation alone” value (E. coli lptD4213) was “Rescue from fluorofolin inhibition was also shown”.
